This note sets out measurements from ChEMBL document CHEMBL1134253, “HIV Rev peptides conjugated with peptide nucleic acids and their efficient binding to RRE RNA” (Bioorg Med Chem Lett, 2001).

Test [1] addresses Rev responsive element (RRE) RNA. In words: Dissociation constant of compound with Rev-responsive element (RRE) IIB RNA was determined by the competition assay. It counts as nucleic-acid assay.
The subject of test [2] is Rev responsive element (RRE) RNA. In words: Ratio of the dissociation constant between Rev37-50 and the PNA-peptide. It counts as nucleic-acid assay.

One may read the Kd as the equilibrium constant for the complex coming apart. In turn, `Cc1cn(CC(=O)N(CCNC(=O)CCC(=O)O)CC(=O)NCCN(CC(=O)NCCN(CC(=O)N[C@@H](C)C(=O)N[C@@H](CCCNC(=N)N)C(=O)N[C@@H](CCCNC(=N)N)C(=O)N[C@@H](CC(N)=O)C(=O)N[C@@H](CCCNC(=N)N)C(=O)N[C@@H](CCCNC(=N)N)C(=O)N[C@@H](CCCNC(=N)N)C(=O)N[C@@H](CCCNC(=N)N)C(=O)N[C@@H](Cc2c[nH]c3ccccc23)C(=O)N[C@@H](CCCNC(=N)N)C(=O)N[C@@H](CCC(=O)O)C(=O)N[C@@H](CCCNC(=N)N)C(=O)N[C@@H](CCC(N)=O)C(=O)N[C@H](CCCNC(=N)N)C(N)=O)C(=O)Cn2ccc(N)nc2=O)C(=O)Cn2cnc3c(=O)[nH]c(N)nc32)c(=O)[nH]c1=O` displayed a dissociation constant Kd in test [1] of 17 nM. Besides, in test [2], the Ratio turned out to be 5.1.
For `Cc1cn(CC(=O)N(CCNC(=O)CCC(=O)O)CC(=O)NCCN(CC(=O)N[C@@H](C)C(=O)N[C@@H](CCCNC(=N)N)C(=O)N[C@@H](CCCNC(=N)N)C(=O)N[C@@H](CC(N)=O)C(=O)N[C@@H](CCCNC(=N)N)C(=O)N[C@@H](CCCNC(=N)N)C(=O)N[C@@H](CCCNC(=N)N)C(=O)N[C@@H](CCCNC(=N)N)C(=O)N[C@@H](Cc2c[nH]c3ccccc23)C(=O)N[C@@H](CCCNC(=N)N)C(=O)N[C@@H](CCC(=O)O)C(=O)N[C@@H](CCCNC(=N)N)C(=O)N[C@@H](CCC(N)=O)C(=O)N[C@H](CCCNC(=N)N)C(N)=O)C(=O)Cn2ccc(N)nc2=O)c(=O)[nH]c1=O`, the Kd in test [1] turned out to be 27 nM. Moreover, the Ratio in test [2] is 3.2.
